Active and inactive are the calls of the source.

Sequence of Egl nine homolog 1 (Q9GZT9 whole entry): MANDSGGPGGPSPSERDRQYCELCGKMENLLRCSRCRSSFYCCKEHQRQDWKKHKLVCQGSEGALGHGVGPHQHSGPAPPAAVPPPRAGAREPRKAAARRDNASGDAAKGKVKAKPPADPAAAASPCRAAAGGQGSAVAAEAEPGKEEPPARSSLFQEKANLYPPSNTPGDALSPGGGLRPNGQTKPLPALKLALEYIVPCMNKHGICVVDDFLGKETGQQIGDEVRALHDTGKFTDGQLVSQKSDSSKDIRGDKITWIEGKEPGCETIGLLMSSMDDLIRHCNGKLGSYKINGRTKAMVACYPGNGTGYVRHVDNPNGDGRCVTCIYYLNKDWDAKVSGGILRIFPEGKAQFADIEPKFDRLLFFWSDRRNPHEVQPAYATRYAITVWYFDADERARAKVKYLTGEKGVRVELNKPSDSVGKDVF

Tested on in one series: not listed separately
Put plainly: Cmax in Cynomolgous monkey at 3 mg/kg,po. It counts as ADME, organism-based, Macaca fascicularis. The conditions noted are these: cynomolgus monkey, in vivo.
In the case of `Cc1nc(Cc2ccc(-c3ccccc3)cc2)nc(C(=O)NCC(=O)O)c1O`, the maximum concentration (Cmax) (in general, the highest concentration seen after dosing) amounted to 28000 ng/mL.

Tested on in the next series: not listed separately
In words: Lipophilicity, logD of the compound. Format: physicochemical. To be noted: octanol/water.
Turning to `Cc1nc(Cc2ccc(-c3ccccc3)cc2)nc(C(=O)NCC(=O)O)c1O`, the pH-dependent lipophilicity (logD) (commonly the decadic logarithm of the distribution of all forms, ionised or not, between an organic phase and buffer at a given pH) stood at 0.8.

Tested on in another series: not listed separately
In words: Volume of distribution at steady state in Cynomolgous monkey at 1 mg/kg,iv. To be noted: cynomolgus monkey, in vivo, read-out: Vdss. Format: ADME, organism-based, Macaca fascicularis.
On to `Cc1nc(Cc2ccc(-c3ccccc3)cc2)nc(C(=O)NCC(=O)O)c1O`, for which the Vd was found to be 0.06 L/kg.

Tested on in another series: not listed separately
Put plainly: AUC in Cynomolgous monkey at 3 mg/kg,po. Format: ADME, organism-based, Macaca fascicularis. The conditions noted are these: cynomolgus monkey, in vivo.
In the case of `Cc1nc(Cc2ccc(-c3ccccc3)cc2)nc(C(=O)NCC(=O)O)c1O`, the AUC (as a rule, the area under the concentration-time curve, a measure of exposure) was 380 µg·h/mL.

Another series concerns Cynomolgus monkey. In words: animal or person. The conditions noted are these: Macaca fascicularis, in Primates, po, 24 h.
Consider `Cc1nc(Cc2ccc(-c3ccccc3)cc2)nc(C(=O)NCC(=O)O)c1O`, for which the ED10 worked out at 2.2 mg/kg.
Same read-out and setting: to `O=C(O)CNC(=O)c1nc(Cl)c2ccccc2c1O` belongs 13 mg/kg.

The test system of the next series is Cynomolgus monkey. In words: […] activity against Cynomolgous monkey assessed as increase of erythropoietin level in plasma at po administration measured after 12 hrs. Format: functional, organism-based. The conditions noted are these: Macaca fascicularis.
Consider `Cc1nc(Cc2ccc(-c3ccccc3)cc2)nc(C(=O)NCC(=O)O)c1O`, for which the outcome was Active.
Same read-out and setting: to `O=C(O)CNC(=O)c1nc(Cl)c2ccccc2c1O` belongs “Active”.

Tested on in the next series: not listed separately
In words: Protein binding in Cynomolgous monkey assessed as assessed as unbound fraction. Format: ADME, Macaca fascicularis. The conditions noted are these: cynomolgus monkey.
`Cc1nc(Cc2ccc(-c3ccccc3)cc2)nc(C(=O)NCC(=O)O)c1O`: the Fu came out at 0.6%.

Tested on in a further series: not listed separately
Put plainly: Half life in Cynomolgous monkey at 1 mg/kg,iv. Format: ADME, organism-based, Macaca fascicularis. The conditions noted are these: cynomolgus monkey, in vivo.
As for `Cc1nc(Cc2ccc(-c3ccccc3)cc2)nc(C(=O)NCC(=O)O)c1O`, the half-life (usually the time needed for the level to fall by half in the phase considered) was 780 min.

Tested on in another series: not listed separately
In words: Metabolic stability in Cynomolgous monkey assessed as compound remaining. Format: ADME, Macaca fascicularis. To be noted: cynomolgus monkey.
In the case of `Cc1nc(Cc2ccc(-c3ccccc3)cc2)nc(C(=O)NCC(=O)O)c1O`, the Stability was 90%.

The next series addresses Egl nine homolog 1 (Homo sapiens, UniProt Q9GZT9).
Test: not given
Details: not given
For `Cc1nc(Cc2ccc(F)cc2)c(O)c(C(=O)NCC(=O)O)n1`, inhibition was half-maximal at 11 µM (IC50).
Still for that read-out and setting: next, `Cc1nc(Cc2ccc(-c3ccccc3)cc2)nc(C(=O)N[C@@H](C)C(=O)O)c1O`: 10 µM; `Cc1nc(Cc2ccc(Cl)cc2)nc(C(=O)NCC(=O)O)c1O`: 17 µM; `Cc1nc(C)c(O)c(C(=O)NCC(=O)O)n1`: 11 µM.
Same read-out and setting: next, `Cc1nc(CCc2ccc(F)cc2)c(O)c(C(=O)NCC(=O)O)n1`: 8.1 µM; `Cc1nc(Cc2ccc(-c3ccccc3)cc2)nc(C(=O)NCC(=O)O)c1S`: 13 µM; `Cc1nc(C(C)c2ccc(-c3ccccc3)cc2)nc(C(=O)NCC(=O)O)c1O` (racemic): 18 µM.
In the case of `Cc1nc(Cc2ccc(C(F)(F)F)cc2)nc(C(=O)NCC(=O)O)c1O`, inhibition was half-maximal at 11 µM (IC50).
The same measure, in the same setting: next, `Cc1nc(Cc2ccc(C(C)(C)C)cc2)nc(C(=O)NCC(=O)O)c1O`: 3.9 µM.
On to `Cc1nc(Cc2ccc(-c3ccccc3)cc2)nc(C(=O)NCC(=O)O)c1C(=O)O`, for which the IC50 (usually the concentration needed to halve the response being measured) is > 100 µM.
The same measure, in the same setting: to `Cc1nc(Cc2ccc(-c3ccccc3)cc2)nc(C(=O)NCC(=O)O)c1C` belongs > 100 µM.
Same read-out and setting: next, `Cc1nc(C(=O)NCC(=O)O)c(O)c(-c2ccc(F)cc2)n1`: 39 µM.
Same read-out and setting: to `Cc1nc(Cc2cccc(-c3ccccc3)c2)nc(C(=O)NCC(=O)O)c1O` belongs 20 µM; to `Cc1nc(Cc2ccc(-c3ccccc3)cc2)nc(C(=O)NCC(=O)O)c1O`, 1.5 µM.
Consider `O=C(O)CNC(=O)c1nc(Cc2ccc(-c3ccccc3)cc2)ncc1O`, for which the half-inhibitory concentration (IC50) is > 100 µM.
On to `O=C(O)CNC(=O)c1nc(Cc2ccc(-c3ccccc3)cc2)nc(C(F)F)c1O`, for which the IC50 came to 4.1 µM.
On the same count and under the same terms, next, `Cc1nc(C(F)(F)c2ccc(-c3ccccc3)cc2)nc(C(=O)NCC(=O)O)c1O`: 55 µM.
The same measure, in the same setting: next, `Cc1nc(Cc2ccc(-c3ccccc3)cc2)c(O)c(C(=O)NCC(=O)O)n1`: 10 µM; `Cc1nc(Cc2ccc(-c3ccccc3)cc2)nc(C(=O)NCC(=O)O)c1N`: > 100 µM.
On to `Cc1nc(Cc2ccc(-c3ccccc3)cc2)nc(C(=O)N[C@H](C)C(=O)O)c1O`, for which the IC50 was > 100 µM.
The same measure, in the same setting: next, `CCc1nc(Cc2ccc(-c3ccccc3)cc2)nc(C(=O)NCC(=O)O)c1O`: 7.3 µM; `Cc1nc(Cc2ccccc2-c2ccccc2)nc(C(=O)NCC(=O)O)c1O`: 17 µM.

The subject of another series is Hep 3B2. Put plainly: […] activity against human Hep3B cells assessed as increase of erythropoietin release by measuring effective concentration. Format: functional, cell-based.
Details: not given
Regarding `Cc1nc(Cc2ccc(F)cc2)c(O)c(C(=O)NCC(=O)O)n1`, the EC50 (commonly the concentration giving half of the maximal effect) amounted to 51 µM.
Still for that read-out and setting: next, `Cc1nc(Cc2ccc(-c3ccccc3)cc2)nc(C(=O)N[C@@H](C)C(=O)O)c1O`: 14 µM.
For the molecule `Cc1nc(CCc2ccc(F)cc2)c(O)c(C(=O)NCC(=O)O)n1`, the half-maximal effective concentration (EC50) stood at 36 µM.
Still for that read-out and setting: to `Cc1nc(Cc2ccc(-c3ccccc3)cc2)nc(C(=O)NCC(=O)O)c1S` belongs 67 µM; to `Cc1nc(C(C)c2ccc(-c3ccccc3)cc2)nc(C(=O)NCC(=O)O)c1O` (racemic), 16 µM; to `Cc1nc(Cc2ccc(C(F)(F)F)cc2)nc(C(=O)NCC(=O)O)c1O`, 29 µM.
Same read-out and setting: to `Cc1nc(Cc2ccc(C(C)(C)C)cc2)nc(C(=O)NCC(=O)O)c1O` belongs 25 µM.
Still for that read-out and setting: to `Cc1nc(C(=O)NCC(=O)O)c(O)c(-c2ccc(F)cc2)n1` belongs 108 µM; to `Cc1nc(Cc2cccc(-c3ccccc3)c2)nc(C(=O)NCC(=O)O)c1O`, 61 µM; to `Cc1nc(Cc2ccc(-c3ccccc3)cc2)nc(C(=O)NCC(=O)O)c1O`, 8.4 µM.
For `O=C(O)CNC(=O)c1nc(Cc2ccc(-c3ccccc3)cc2)nc(C(F)F)c1O`, the EC50 came out at 105 µM.
Same read-out and setting: next, `O=C(O)CNC(=O)c1nc(Cl)c2ccccc2c1O`: 64 µM.
Still for that read-out and setting: to `Cc1nc(Cc2ccc(-c3ccccc3)cc2)c(O)c(C(=O)NCC(=O)O)n1` belongs 27 µM.
Regarding `CCc1nc(Cc2ccc(-c3ccccc3)cc2)nc(C(=O)NCC(=O)O)c1O`, the EC50 amounted to 16 µM.

The values above are taken from ChEMBL document CHEMBL5576057, “Discovery of DS44470011: An oral hypoxia-inducible factor prolyl hydroxylase inhibitor for the treatment of renal anemia” (Bioorg Med Chem Lett, 2024).
